The values that follow come from patent US20240293563A1, “GLP-1 RECEPTOR LIGAND MOIETY CONJUGATED OLIGONUCLEOTIDES AND USES THEREOF” (priority 2017, published 2024).

In general, IC50 refers to the concentration needed to halve the response being measured.

k = constrained ethyl (cEt); d = 2'-deoxy (DNA)

Data set [1] has as its system MALAT-1. Description: Dose-dependent reduction of MALAT-1 expression in LVX-GLP1R cells. It counts as cell-based, human. The note with it: approximately 24 hours; read-out: IC50 (MALAT-1 expression in GLP1R HEK cells). The procedure: HEK cells stably expressing FLAG-tagged GLP1R were generated by infecting HEK 293 cells with FLAG-tagged GLP1R containing lentivirus produced by transfection of 293T cells with pLVX-IRES-Puro (Clontech Laboratories Inc., Mountainview, CA) harboring the FLAG-GLP1R insert. Infected cells were selected with puromycin (2 μg/ml) and then analyzed for receptor expression by western blot and immunofluorescence. Cultured GLP1R cells were plated at a density of 10,000 cells per well and treated with 0.3, 1, 3, 9, 27, 82, 247, 741, 2,222, 6,667, and 20,000 nM modified oligonucleotide for approximately 24 hours. After the treatment period, total RNA was prepared using an RNeasy mini kit (Qiagen, Valencia, CA, USA) and qRT-PCR was performed using the primer probe set RTS2739 (forward sequence: […] (SEQ ID NO: 74), reverse sequence: […] (SEQ ID NO: 75), probe sequence: […] (SEQ ID NO: 76). Briefly, ˜50 ng total RNA in 5 d water was mixed with 0.3 d primer probe sets containing forward and reverse primers (10 μM of each) and fluorescently labeled probe (3 μM), 0.3 W RT enzyme mix (Qiagen), 4.4 d RNase-free water, and 10 d of 2×PCR reaction buffer in a 20 d reaction. Reverse transcription was performed at 48° C. for 10 min, 40 cycles of PCR were conducted at 94° C. for 20 s, and 60° C. for 20 s within each cycle, using StepOne Plus RT-PCR system (Applied Biosystems, Phoenix, AZ, USA). The mRNA levels were normalized to the amount of total RNA present in each reaction as determined by Ribogreen assay (Life Technologies) and normalized to the saline control (100% expression).

Data set [2] concerns MALAT1. Nature of the data set: In situ hybridization of MALAT1 (QuantiGene ViewRNA) in mouse tissues after intravenous ASO. It counts as in vivo. The text has this:
NO: 63) or a GLP-1 conjugated MALAT1 ASO (ISIS 816385) described in Example 1 at concentrations of 1.8. 0.6, or 0.2 μmol/kg. […] MALAT1 expression was detected using the QuantiGene ViewRNA tissue assay (Affymetrix, cat. No. QVT0011). Species-specific MALAT1 probes were purchased from Affymetrix (cat. No. VB-11110-01/mouse; VF1-13963/monkey). In brief, mouse tissues were fixed in 10% neutral-buffered formalin and embedded into paraffin and sectioned into […]. After deparaffinization, the tissue slides were boiled in Affymetrix pretreatment solution for 10-30 minutes followed by treatment with protease at 40° C. for 10 to 40 minutes depending on tissue. The MALAT1 RNA probe was used at a 1:40 dilution and was incubated with sample at 40° C. for 120 minutes. After washing, the MALAT1 RNA/probe complex was hybridized with preamplifier, amplifier, and AP-oligonucleotides at 40° C. for 25, 15, and 15 minutes, respectively. After removal of free AP oligonucleotide by washing in PBS, the slide was incubated with Fast Red substrate at room temperature for 30 minutes. The tissue images were acquired using an Aperio scanner. Hung et al., 2013 Nuc Acid Ther. 369-78. To determine a dose response of a GLP-1 conjugated MALAT1 ASO (ISIS 816385) described in Example 1 on pancreatic MALAT1 expression, male C57BL/6 mice fed a chow diet received a single intravenous injection of ISIS 816385 or an unconjugated MALAT1 ASO (ISIS 556089) described above at concentrations of 0.2, 0.06, and 0.02 μmol/kg. MALAT1 expression was detected using the QuantiGene ViewRNA tissue assay described above.

The subject of data set [3] is MALAT1 mRNA. Description: Dose dependent antisense inhibition of MALAT1 in hGLP1R-HEK cells. The note with it: approximately 24 hrs, qRT-PCR normalized to RPLP0. The data set is classed as cell-based, human. The procedure:
The hGLP1R-HEK cell line was generated by expressing hGLP1R in Flp-IN™ 293 cells. Cultured hGLP1R-HEK cells were seeded at a density 30,000 cells per well in 96 well plates and saline, 100 nM or 10 μM of unconjugated parent antisense oligonucleotide ISIS 556089 targeted to MALAT1 described above or ISIS 776102 (nucleobase sequence: […]) (SEQ ID NO: 64) targeted to FOXO1, or corresponding GLP-1 peptide conjugated antisense oligonucleotides (ISIS 816385 targeted to MALAT1 described above or ION 913193 targeted to FOXO1 described above) for approximately 24 hrs. After the treatment period, cells were harvested, the mRNA isolated and adjusted to total RNA content as measured by nanadrop UV-Vis spectrophotometer. MALAT1 or FOXO1 mRNA levels were measured by quantitative real-time PCR and normalized to the mRNA levels of the house keeping gene (RPLP0) in the same samples. Human MALAT1 mRNA levels were measured using gene expression assays HS00273907 and FOXO1 mRNA levels were measured using assay Hs01054576 (Applied Biosystems). The mRNA level of the house keeping gene RPLP0 was measured using a primer probe set with forward sequence […] CAT […] (SEQ ID NO: 66), reverse sequence […] (SEQ ID NO: 67). […]
After the treatment period cells were harvested, mRNA isolated and MALAT1 mRNA levels measured by quantitative real-time PCR using the primer probe set as described herein (Example 7). […]
In general terms: Real-time PCR tracks product formation cycle by cycle.

Data set [4] relates to MALAT1. Description: Effect of peptide composition and attachment point on peptide-conjugated ASO activity in LVX-GLP1R cells. The data set is classed as cell-based, human. The note with it: 7 doses in a 4-fold dilution series, MALAT1 RNA.
Data set [5] has as its system MALAT1 mRNA. Nature of the data set: Dose dependent antisense inhibition of MALAT1 in WT HEK293 cells. It counts as cell-based, human. To be noted: approximately 24 hrs, qRT-PCR normalized to RPLP0.
For data set [6], the system named is MALAT1. Description: MALAT1 expression in pancreas by in situ hybridization (RNAscope). It counts as in vivo, mouse. To be noted: 2 μmol/kg; subcutaneous or intravenous (ISIS 556089 subcutaneous only); 72 hrs after last dose. The text has this:
Female C57BL/6Crl mice were assigned to five treatment groups. […] All animals were sacrificed approximately 72 hrs after last dose, and pancreas harvested for ex vivo analysis of uptake of antisense oligonucleotides by immunohistochemistry.
Female C57BL/6Crl mice were assigned to five treatment groups as described herein (Example 11) All animals were sacrificed approximately 72 hrs after last dose, and pancreas harvested for ex vivo analysis of MALAT1 expression by in situ hybridization.
The in situ mRNA amplification and labelling process was performed on the Ventana Discovery ULTRA, an Automated ISH platform(Ventana Medical System, Inc) using the RNAscope® VS Assay based on Advanced Cell Diagnostics (ACD). Customized probes were obtained from ACD for the detection of MALAT1 mRNA, and various parameters were tested to optimize the novel RNAscope method for ISH. The signal was amplified using multiple steps, followed by labeled probes and detected using the RNAscope® 2.5 VS Reagent Kit-RED. Stained slides were analyzed under a standard bright-field microscope.

Data set [7] concerns MALAT1 mRNA. Nature of the data set: MALAT1 mRNA in isolated islets and liver 72 hrs after single subcutaneous dose. The data set is classed as in vivo, mouse. The note with it: single subcutaneous injection 0.01, 0.1 or 1 μmol/kg. Here is the method:
(§1) Pancreatic islets were isolated by collagenase digestion from pancreas collected from exsanguinated 12 to 15 weeks old female C57BL/6Crl mice. Islets were maintained in tissue culture until use. Islet were dissociated into single cells by shaking in media containing a low extracellular calcium concentration. 10 to 20 intact or dissociated islets were plated on plastic Petri Dishes and treated with 10 μM of antisense oligonucleotides for approximately 24 hrs. After the treatment period cells were harvested, RNA isolated, adjusted to total RNA content, as measured by RIBOGREEN®. MALAT1 or FOXO1 mRNA levels measured by quantitative real-time PCR. Mouse Malat1 mRNA levels was measured using gene expression assay Mm01227912_s1 from Applied Biosystems, whereas mouse FOXO1 mRNA levels was measured using a primer probe set with forward sequence […] All data was normalized to the mRNA level of the house keeping gene (RPLP0) in the same sample, measured using a primer probe set with forward sequence […]
(§2) All animals were sacrificed 72 hrs after last dose.

Data set [8] deals with MALAT1. Description: MALAT1 in situ hybridization in beta islet cells after i.v. GLP-1 ASO conjugates with various linkers. To be noted: male C57BL/6 mice; intravenous 0.6 μmol/kg/week once a week for three weeks; 72 hours after final injection. It counts as in vivo, mouse.
Data set [9] has as its system FOXO1 mRNA. Nature of the data set: FOXO1 mRNA in isolated islets and liver after 6 weeks repeated administration to ob/ob mice. To be noted: male ob/ob mice; 0.1 μmol/kg once weekly for 6 weeks; 120 hrs after last dose. The data set is classed as in vivo, mouse. Here is the method: Pancreatic islets were isolated by collagenase digestion from pancreas collected from exsanguinated 12 to 15 weeks old female C57BL/6Crl mice. Islets were maintained in tissue culture until use. Islet were dissociated into single cells by shaking in media containing a low extracellular calcium concentration. 10 to 20 intact or dissociated islets were plated on plastic Petri Dishes and treated with 10 μM of antisense oligonucleotides for approximately 24 hrs. After the treatment period cells were harvested, RNA isolated, adjusted to total RNA content, as measured by RIBOGREEN®. MALAT1 or FOXO1 mRNA levels measured by quantitative real-time PCR. […] All data was normalized to the mRNA level of the house keeping gene (RPLP0) in the same sample, measured using a primer probe set with forward sequence […] NO: 71), reverse sequence […] NO: 72) and probe sequence […] NO: 73). Male ob/ob mice (B6.V-Lepob/OlaHsd, Harlan) were assigned to five treatment groups receiving either vehicle, 0.1 μmol/kg ISIS 776102, 0.1 μmol/kg ION 913195, 0.03 ION 913193 or 1 μmol/kg ION 913193. All animals were treated once weekly for 6 weeks. Approximately 120 hrs after last dose all animals were sacrificed, liver samples collected and pancreatic islets isolated, as described herein (Example 9), for mRNA analysis. FOXO1 mRNA levels were quantified as described herein (Example 9) and mRNA levels expressed relative to housekeeping gene in each sample (RPLP0).

Data set [10] relates to FOXO1 mRNA. Nature of the data set: FOXO1 mRNA in isolated islets and liver 72 hrs after single subcutaneous dose. The note with it: single subcutaneous injection 0.01 or 1 μmol/kg. It counts as in vivo, mouse. Here is the method:
as §1, §2

Data set [11] relates to FOXO1 mRNA. Description: FOXO1 mRNA in cultured mouse primary islets of Langerhans treated with ASO. The data set is classed as cell-based. The note with it: for Islet FOXO1 mRNA levels relative to control (RPLP0): percent of untreated cells, 1 μM ASO 3 hrs every 24 hrs. Here is the method: Pancreatic islets were isolated by collagenase digestion from pancreas collected from exsanguinated 12 to 15 weeks old female C57BL/6Crl mice. Islets were maintained in tissue culture until use. Islet were dissociated into single cells by shaking in media containing a low extracellular calcium concentration. 10 to 20 intact or dissociated islets were plated on plastic Petri Dishes and treated with 10 μM of antisense oligonucleotides for approximately 24 hrs. After the treatment period cells were harvested, RNA isolated, adjusted to total RNA content, as measured by RIBOGREEN®. MALAT1 or FOXO1 mRNA levels measured by quantitative real-time PCR. […] All data was normalized to the mRNA level of the house keeping gene (RPLP0) in the same sample, measured using a primer probe set with forward sequence […] NO: 71), reverse sequence […] NO: 72) and probe sequence […] NO: 73). Pancreatic islets were isolated by collagenase digestion from pancreas collected from euthanized 12 to 15 weeks old female B6.Cg-Lepob/J mice and maintained in tissue culture until use. 150 intact islets were placed in plastic Petri Dishes and treated with 1 μM of antisense oligonucleotides for 3 hrs every 24 hrs and harvested after approximately 24 hrs, 48 hrs or 96 hrs total treatment time respectively. After the treatment period, islets were harvested, and half of the islets were used to measure FOXO1 mRNA levels as described herein (Example 9). Half of the islets were homogenized in M-PER protein extraction reagent (Thermo Scientific) containing a protease inhibitor cocktail (Complete Mini and phosphoSTOP, Roche Diagnostics). The protein content of lysates were quantitated using BCA Assay Reagent (Pierce). […] For the anti-FoxO1 antibody, the secondary antibody was HRP-conjugated polyclonal goat anti-Rabbit P0448 (DAKO) and for the anti-α-tubulin antibody, the secondary antibody was HRP-conjugated polyclonal goat anti-mouse P0447 (DAKO). Enhanced chemiluminescence reagents (Pierce) were used for detection.

Consider “ISIS 556089: unconjugated parent 3-10-3 cEt ASO targeting murine MALAT1, nucleobase sequence GCATTCTAATAGCAGC (SEQ ID NO: 63) (sugars from the 5' end k3 d10 k3, backbone and methylation of C not given here) [reference compound]”, for which the IC50 in data set [1] amounted to 3970 nM; in [3], 870 nM; in [4], 3820 nM; in data set [5], 740 nM. Also, the “effect in liver (MALAT1 in situ hybridization)” value in data set [2] (Study 2, single intravenous injection, any of the doses 0.2, 0.06, 0.02 μmol/kg) is “No observable effect”. Also, in [2] (male C57BL/6 mice, 2 intravenous injections of 1.8, 0.6 or 0.2 μmol/kg, 72 hours after final injection), the “MALAT1 expression in pancreatic beta islet cells (in situ hybridization)” value is “not”. In [6], the “MALAT1 expression in the pancreatic islet of Langerhans” value is “not reduced”. In addition, the “antisense inhibition of MALAT1 in islet of Langerhans” value in data set [7] is reported as “No significant antisense inhibition”. The “MALAT1 expression in beta islet cells compared to saline control (in situ hybridization)” value in data set [8] is given as “not”.
As for “ISIS 776102: unconjugated parent antisense oligonucleotide targeted to FOXO1, nucleobase sequence TCTTCTTAAAATACCC (SEQ ID NO: 64) (listed as DNA, further chemistry not given here) [reference compound]”, the “antisense inhibition of FOXO1 in islet of Langerhans” value in [9] and in data set [10] was “No significant antisense inhibition” each time. The “reduction in FOXO1 mRNA” value in data set [11] (mouse islets, 1 μM ASO, summary of Table 2) is “marginal reduction”. Further, the results for the “Islet FOXO1 mRNA levels relative to control (RPLP0)” value in data set [11] (24 hours), in [11] (48 hours) and in data set [11] (96 hours) were 82%, 86% and 92%, respectively.
